According to US3980707A, “Methylamino derivative of 2-ethylindandione-1,3 and the hydrochloride thereof” (priority 1973, dated 1976):
Where a name gives a salt, the structure may show the parent alone. Each block holds one compound with its values, some of them ahead of it.

Assays:
[1] = Solubility and hydrolysis in water; format: physicochemical; conditions: hydrochlorides
[2] = tested on: seizures induced by an electroshock; assay: Anticonvulsive effect in electroshock (intraperitoneal); format: in vivo, white rats and white mice
Method: Anticonvulsive effect of Metindione in electroshock was studied on white rats and white mice on a comparison basis with the well known drug phenobarbital. Both preparations were administered by intraperitoneal injections. The results are summarized in Tabl. 1 (confidence limits are indicated in parentheses; P = 0.05).

[3] = Acute toxicity (LD50, Table 1); parameters: species or system white rats and white mice; conditions: in vivo, ip; confidence limits in parentheses, P = 0.05; second ED50 column of Table 1
electroshock = assay: Thirty-day electroshock tests (habituation); format: in vivo; conditions: white mice
conditioned reflexes = assay: Influence on rate of development of conditioned reflexes (learning); format: in vivo, white mice; conditions: for ET50 (medium time required for learning): confidence limits in parentheses, P=0.05
Excerpt: The influence of Metindione and Phenobarbital on learning has been studied on white mice.
(confidence limits are put in parentheses; P=0.05).

[4] = Extended every day administration / chronic toxicity; format: in vivo
[5] = Anticonvulsive activity and toxicity, general statements; format: in vivo; conditions: compared with the conventional anticonvulsants

hydrolysis in water [1]: readily hydrolyzed in water
SMILES: CCC1(Nc2ccccc2)C(=O)c2ccccc2C1=O [2-aniline-2-ethylindandione-1,3 hydrochloride]

SMILES: CCC1(NC)C(=O)c2ccccc2C1=O [Metindione, 2-methylamino-2-ethylindandione-1,3 hydrochloride]
ED50 ([2]; Rattus norvegicus, ip, electroshock, confidence limits in parentheses, P = 0.05): 3.6 mg/kg
Protective Index (in ratio of LD50 /ED50) ([2]; electroshock, i.p., confidence limits in parentheses, P = 0.05): 115 (89+149)
protective index higher than that of phenobarbital ([2]; in vivo): 14 times
anticonvulsive effect stronger than that of phenobarbital ([2]; seizures induced by an electroshock, relative to phenobarbital): ~4 times
LD50 [3]: 415 mg/kg
necessity to increase initial dose / habit forming reaction (electroshock): no necessity to increase the initial dose
ET50 (medium time required for learning) (conditioned reflexes; dose 1/2 of ED50 of anticonv. action): 2.4(2.1+2.6) day
ET50 (medium time required for learning) (conditioned reflexes; dose 1 x ED50 of anticonv. action): 2.5(2.1+2.8) day
ET50 (medium time required for learning) (conditioned reflexes; dose 2 x ED50 of anticonv. action): 2.0(1.7+2.3) day
ET50 (medium time required for learning) (conditioned reflexes; dose 4 x ED50 of anticonv. action): 2.8(2.4+3.4) day
influence on rate of developing conditioned reflexes (conditioned reflexes; mouse, in vivo): did not influence the rate of developing conditioned reflexes
toxic effect ([4]; extended every day administration, doses 15 times higher than the therapeutical average): no toxic effect
acute and chronic toxicity ([4]; in vivo): low acute and a low chronic toxicity
morphological internal organic changes ([4]; in vivo): does not cause any morphological internal organic changes
influence on normal development and growth of young animals ([4]; young animals): no adverse influence on normal development and growth of young animals

SMILES: CCC1(NC)C(=O)c2ccccc2C1=O [2-methylamino-2-ethylindandione-1,3 hydrochloride]
anticonvulsant index [5]: high anticonvulsant index
